What was measured:
[1] = Peroxynitrite test (total antioxidant effect), antioxidant screening; format: biochemical; settings: comparison in words of the scores of table 3
From the text: To assess and verify the effect of lignosulfonate as antioxidant several lignosulfonic samples have been tested in different antioxidant screenings. Table 3. Samples tested for antioxidant effect. Five types of lignosulfonates were investigated; sodium lignosulfonate, a desulfonated oxidized lignosulfonate, and three fractions of a sodium lignosulfonate; low, medium and high molecular weight. […] The desulfonated oxidized lignosulfonate had the best antioxidant effect compared to the sodium lignosulfonate samples. […] As a comparison the synthetic antioxidant Ethoxyquin, gave the highest score in the test.

[2] = Autoxidation of rosmarinic acid with oxygen at 65°C with/without lignosulfonate (Example 3), reversed-phase HPLC-UV 280 nm; format: physicochemical; set-up: unit not given here
From the text: The combined effect of lignosulfonate was in addition shown in autoxidation experiments using two different lignosulfonates and rosmarinic acid as a representative for a different antioxidant. […] In parallel the same concentration of antioxidant, rosmarinic acid 1%, was supplemented with lignosulfonate. The tested lignins were a sodium lignosulfonate (LS 1) and a calcium lignosulfonate (LS 2), both added in the same amounts based on dry content (17%). Samples were withdrawn daily and the amount of remaining antioxidant was chromatographically quantified. Reversed-phase HPLC with UV-detection at 280 nm was the method of choice for monitoring the positive effect of LS.

Row | Structure (SMILES) | antioxidant effect [1] | Autoxidation of rosmarinic acid (amount of remaining antioxidant) ([2]; Day 0, rosmarinic acid 1%, lignosulfonate 17% dry content) | Autoxidation of rosmarinic acid (amount of remaining antioxidant) ([2]; Day 1) | Autoxidation of rosmarinic acid (amount of remaining antioxidant) ([2]; Day 2) | Autoxidation of rosmarinic acid (amount of remaining antioxidant) ([2]; Day 3) | Autoxidation of rosmarinic acid (amount of remaining antioxidant) ([2]; Day 4) | Autoxidation of rosmarinic acid (amount of remaining antioxidant) ([2]; Day 4, listed as rosmarinic acid)
1 | CCOc1ccc2c(c1)C(C)=CC(C)(C)N2 [Ethoxyquin, 1,2-dihydro-6-etoxy-2,2,4-trimetylquinoline] | highest score |  |  |  |  |  | 
2 | O=C(/C=C/c1ccc(O)c(O)c1)O[C@H](Cc1ccc(O)c(O)c1)C(=O)O [Rosmarinic acid] |  | 100 | 72 | 45 | 11 | 2 | completely degraded
3 | Cc1cc(C(C)(C)C)c(O)c(C(C)(C)C)c1 [BHT, 2,6-di-tert-butyl-4-methylphenol] | scored lowest |  |  |  |  |  | 

From EP2209388B1, “SACRIFICIAL ANTIOXIDANT” (Borregaard AS, priority 2007, dated 2009)
